In the NIST ThermoML archive (doi:10.1016/j.jct.2013.12.028):

Tests used:
[1] = 101.33 kPa, Liquid, Vibrating tube method
[2] = refractive index (Na D-line) (dimensionless); conditions: 298.15 K; 101.33 kPa; Liquid; Pulfrich refractometry

C1CCOC1 [tetrahydrofuran]
[1]
Conditions	mass density [kg/m3]
278.15 K	903.68
283.15 K	898.309
288.15 K	892.903
293.15 K	887.471
298.15 K	882.005
303.15 K	876.513
308.15 K	870.981
313.15 K	865.414
318.15 K	859.81

Conditions	refractive index
[2]	1.4048
